Test results reported in US12202832B2, “Heterocyclic compounds having a calcium-sensing receptor antagonistic activity” (TAKEDA PHARMACEUTICAL COMPANY LIMITED, priority 2017, dated 2025).

Target: T1, human CaSR (Homo sapiens, UniProt P41180)
T1 construct: expressed in transfected cells; host or cells: CHO cells
T1 sequence (P41180 20-1078): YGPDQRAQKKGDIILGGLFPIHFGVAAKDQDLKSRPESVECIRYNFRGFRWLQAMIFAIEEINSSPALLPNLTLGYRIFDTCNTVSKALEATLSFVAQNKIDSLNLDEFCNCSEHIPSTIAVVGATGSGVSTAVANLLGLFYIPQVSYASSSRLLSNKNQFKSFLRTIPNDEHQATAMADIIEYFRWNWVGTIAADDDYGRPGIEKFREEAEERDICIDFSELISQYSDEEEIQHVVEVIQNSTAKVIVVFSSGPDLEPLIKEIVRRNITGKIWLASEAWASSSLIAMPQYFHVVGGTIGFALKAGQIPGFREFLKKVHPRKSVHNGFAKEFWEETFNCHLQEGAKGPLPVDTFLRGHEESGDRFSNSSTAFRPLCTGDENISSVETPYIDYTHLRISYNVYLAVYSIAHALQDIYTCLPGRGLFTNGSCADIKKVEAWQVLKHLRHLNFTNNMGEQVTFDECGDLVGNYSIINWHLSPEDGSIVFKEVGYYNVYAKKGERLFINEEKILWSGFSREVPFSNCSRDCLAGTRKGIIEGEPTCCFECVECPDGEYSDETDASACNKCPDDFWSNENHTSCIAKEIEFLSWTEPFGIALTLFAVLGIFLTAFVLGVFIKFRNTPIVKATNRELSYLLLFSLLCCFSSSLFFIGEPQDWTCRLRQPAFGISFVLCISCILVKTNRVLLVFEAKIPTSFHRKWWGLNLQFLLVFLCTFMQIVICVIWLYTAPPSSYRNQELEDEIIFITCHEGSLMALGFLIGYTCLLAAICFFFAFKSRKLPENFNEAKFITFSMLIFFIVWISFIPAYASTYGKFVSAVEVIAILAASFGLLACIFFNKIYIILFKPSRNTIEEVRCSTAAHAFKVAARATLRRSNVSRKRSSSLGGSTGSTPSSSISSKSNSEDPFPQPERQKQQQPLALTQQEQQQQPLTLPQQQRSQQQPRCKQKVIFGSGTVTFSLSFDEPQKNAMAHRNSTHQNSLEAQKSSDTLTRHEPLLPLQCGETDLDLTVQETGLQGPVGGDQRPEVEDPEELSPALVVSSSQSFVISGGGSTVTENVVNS
Assay: Human CaSR antagonist activity (NFAT-Luciferase reporter in CHO cells)
Type: cell-based
Details: CHO, CaCl2 final 1.3 mM, 100% = reference antagonist at 10 μM, read-out: Inhibition rate (%) at 3.3 μM
Experimental: CaSR antagonist activity measurement was performed using Bright-Glo Luciferase assay system (Promega Corporation). CHO cells in which human CaSR and NFAT-Luciferase reporter gene were forcibly expressed were suspended in MEM alpha (Wako Pure Chemical Industries, Ltd.) containing 10% dialyzed serum (HyClone). The cells in suspension was seeded in 384-well white plate (Corning) at 10,000/20 μL/well, and cultured in an incubator of 37° C., 5% CO2 for one day. A diluent of Test compound was prepared with assay buffer (MEM alpha containing 10 mM HEPES (Life Technologies) and 10% dialysis serum). The diluent was added to the plate at 5 μL/well and allowed to stand at 37° C. for 10 minutes. Further, a diluent of 7.8 mM CaCl2 prepared with assay buffer (final concentration 1.3 mM) was added at 5 μl/well and allowed to stand in an incubator of 37° C., 5% CO2 for 2 hours. Bright-Glo reagents (Promega Corporation) were added at 10 μL/well, and the obtained mixture was stirred for 5 minutes, and then luminescence intensity was measured using Multi-label reader Envision (PerkinElmer, Inc.). The activity (%) of the test compound was calculated with the definitions in which the luminescence intensity when DMSO is added in place of the test compound is defined as 0% inhibition; and the luminescence intensity when (5R)—N-(1-ethyl-1-(4-ethylphenyl)propyl)-2,7,7-trimethyl-5-phenyl-4,5,6,7-tetrahydropyrazolo[1,5-a] Pyrimidine-3-carboxamide at final concentration of 10 μM is added is defined as 100% inhibition.

Row | Structure (SMILES) | inhibition at 3.3 µM [%]
1 | CCc1ccc([C@](CC)(NC(=O)c2c(C)nn3c2N[C@@H](c2ccccc2)CC3(C)C)C(=O)N[C@@H](C)C(N)=O)cc1 [Example 3, (5R)-N-((2S)-1-(((2S)-1-Amino-1-oxopropan-2-yl)amino)-2-(4-ethylphenyl)-1-oxobutan-2-yl)-2,7,7-trimethyl-5-phenyl-4,5,6,7-tetrahydropyrazolo[1,5-a]pyrimidine-3-carboxamide] | 94
2 | CCc1ccc(C(C)(NC(=O)c2cnn3c2N[C@@H](c2ccccc2)CC3(C)C)C(=O)N[C@@H](CC(C)C)C(N)=O)cc1 (stereo partly drawn) [Example 9, (5R)-N-(1-(((2S)-1-Amino-4-methyl-1-oxopentan-2-yl)amino)-2-(4-ethylphenyl)-1-oxopropan-2-yl)-7,7-dimethyl-5-phenyl-4,5,6,7-tetrahydropyrazolo[1,5-a]pyrimidine-3-carboxamide] | 98
3 | CCc1ccc(C(CC)(NC(=O)c2cnn3c2N[C@@H](c2ccccc2)CC3(C)C)C(=O)N[C@H](C(N)=O)[C@@H](C)CC)cc1 (stereo partly drawn) [Example 10, (5R)-N-(1-(((2S,3S)-1-Amino-3-methyl-1-oxopentan-2-yl)amino)-2-(4-ethylphenyl)-1-oxobutan-2-yl)-7,7-dimethyl-5-phenyl-4,5,6,7-tetrahydropyrazolo[1,5-a]pyrimidine-3-carboxamide] | 100
4 | CCc1ccc(C(CC)(NC(=O)c2cnn3c2N[C@@H](c2ccccc2)CC3(C)C)C(=O)N[C@@H](CC(C)C)C(N)=O)cc1 (stereo partly drawn) [Example 14, (5R)-N-(1-(((2S)-1-Amino-4-methyl-1-oxopentan-2-yl)amino)-2-(4-ethylphenyl)-1-oxobutan-2-yl)-7,7-dimethyl-5-phenyl-4,5,6,7-tetrahydropyrazolo[1,5-a]pyrimidine-3-carboxamide] | 98
5 | CCc1ccc(C(CC)(NC(=O)c2cnn3c2N[C@@H](c2ccccc2)CC3(C)C)C(=O)N[C@@H](Cc2ccccc2)C(N)=O)cc1 (stereo partly drawn) [Example 18] | 101
6 | CCc1ccc(C(CC)(NC(=O)c2cnn3c2N[C@@H](c2ccccc2)CC3(C)C)C(=O)N[C@@H](CCCCN)C(N)=O)cc1 (stereo partly drawn) [Example 20, (5R)-N-(1-(((2S)-1,6-Diamino-1-oxohexan-2-yl)amino)-2-(4-ethylphenyl)-1-oxobutan-2-yl)-7,7-dimethyl-5-phenyl-4,5,6,7-tetrahydropyrazolo[1,5-a]pyrimidine-3-carboxamide] | 101
7 | CCc1ccc([C@@](CC)(NC(=O)c2cnn3c2N[C@@H](c2ccccc2)CC3(C)C)C(=O)N[C@H](C(N)=O)[C@@H](C)O)cc1 [Example 21, (5R)-N-((2R)-1-(((2S,3R)-1-Amino-3-hydroxy-1-oxobutan-2-yl)amino)-2-(4-ethylphenyl)-1-oxobutan-2-yl)-7,7-dimethyl-5-phenyl-4,5,6,7-tetrahydropyrazolo[1,5-a]pyrimidine-3-carboxamide] | 103
8 | CCc1ccc(C(CC)(NC(=O)c2cnn3c2N[C@@H](c2ccccc2)CC3(C)C)C(=O)N[C@@H](CO)C(N)=O)cc1 (stereo partly drawn) [Example 23, (5R)-N-(1-(((2S)-1-Amino-3-hydroxy-1-oxopropan-2-yl)amino)-2-(4-ethylphenyl)-1-oxobutan-2-yl)-7,7-dimethyl-5-phenyl-4,5,6,7-tetrahydropyrazolo[1,5-a]pyrimidine-3-carboxamide] | 102
9 | CCc1ccc(C(CC)(NC(=O)c2cnn3c2N[C@@H](c2ccccc2)CC3(C)C)C(=O)N[C@@H](CC(N)=O)C(N)=O)cc1 (stereo partly drawn) [Example 24] | 102

Other lines, results leading:

Row | inhibition at 3.3 µM [%] | Structure (SMILES)
10 | 102 | CCc1ccc(C(CC)(NC(=O)c2cnn3c2N[C@@H](c2ccccc2)CC3(C)C)C(=O)N[C@@H](C)C(N)=O)cc1 (stereo partly drawn) [Example 2, (5R)-N-(1-(((2S)-1-Amino-1-oxopropan-2-yl)amino)-2-(4-ethylphenyl)-1-oxobutan-2-yl)-7,7-dimethyl-5-phenyl-4,5,6,7-tetrahydropyrazolo[1,5-a]pyrimidine-3-carboxamide]
11 | 104 | CCc1ccc(C(CC)(NC(=O)c2cnn3c2N[C@@H](c2ccccc2)CC3(C)C)C(=O)NCC(N)=O)cc1 (stereo partly drawn) [Example 17, (5R)-N-(1-((2-Amino-2-oxoethyl)amino)-2-(4-ethylphenyl)-1-oxobutan-2-yl)-7,7-dimethyl-5-phenyl-4,5,6,7-tetrahydropyrazolo[1,5-a]pyrimidine-3-carboxamide]
12 | 106 | CCc1ccc(C(CC)(NC(=O)c2cnn3c2N[C@@H](c2ccccc2)CC3(C)C)C(=O)N[C@H](C)C(N)=O)cc1 (stereo partly drawn) [Example 22, (5R)-N-(1-(((2R)-1-Amino-1-oxopropan-2-yl)amino)-2-(4-ethylphenyl)-1-oxobutan-2-yl)-7,7-dimethyl-5-phenyl-4,5,6,7-tetrahydropyrazolo[1,5-a]pyrimidine-3-carboxamide]
13 | 106 | CCc1ccc(C(CC)(NC(=O)c2cnn3c2N[C@@H](c2ccccc2)CC3(C)C)C(N)=O)cc1 (stereo partly drawn) [Example 26, (5R)-N-(1-Amino-2-(4-ethylphenyl)-1-oxobutan-2-yl)-7,7-dimethyl-5-phenyl-4,5,6,7-tetrahydropyrazolo[1,5-a]pyrimidine-3-carboxamide]
14 | 103 | CCc1ccc(C(CC)(NC(=O)c2cnn3c2N[C@@H](c2ccccc2)CC3(C)C)C(=O)NC)cc1 (stereo partly drawn) [Example 29, (5R)-N-(2-(4-Ethylphenyl)-1-(methylamino)-1-oxobutan-2-yl)-7,7-dimethyl-5-phenyl-4,5,6,7-tetrahydropyrazolo[1,5-a]pyrimidine-3-carboxamide]
15 | 102 | CCc1ccc(C(CC)(NC(=O)c2cnn3c2N[C@@H](c2ccccc2)CC3(C)C)C(=O)N(C)C)cc1 (stereo partly drawn) [Example 32, (5R)-N-(1-(Dimethylamino)-2-(4-ethylphenyl)-1-oxobutan-2-yl)-7,7-dimethyl-5-phenyl-4,5,6,7-tetrahydropyrazolo[1,5-a]pyrimidine-3-carboxamide]

Same assay, conditions: CaCl2 final 1.3 mM, 100% = reference antagonist at 10 μM

Row | Inhibition rate (%) at 3.3 μM [%] | Structure (SMILES)
16 | 101 | CCc1ccc(C(CC)(NC(=O)c2cnn3c2N[C@@H](c2ccccc2)CC3(C)C)C(=O)N[C@@H](CC(C)C)C(N)=O)cc1 (stereo partly drawn) [Example 15, (5R)-N-(1-(((2S)-1-Amino-4-methyl-1-oxopentan-2-yl)amino)-2-(4-ethylphenyl)-1-oxobutan-2-yl)-7,7-dimethyl-5-phenyl-4,5,6,7-tetrahydropyrazolo[1,5-a]pyrimidine-3-carboxamide]
17 | 105 | CCc1ccc(C(CC)(NC(=O)c2cnn3c2N[C@@H](c2ccccc2)CC3(C)C)C(=O)N[C@@H](CC(C)C)C(N)=O)cc1 (stereo partly drawn) [Example 16, (5R)-N-(1-(((2S)-1-Amino-4-methyl-1-oxopentan-2-yl)amino)-2-(4-ethylphenyl)-1-oxobutan-2-yl)-7,7-dimethyl-5-phenyl-4,5,6,7-tetrahydropyrazolo[1,5-a]pyrimidine-3-carboxamide]
18 | 104 | CCc1ccc(C(CC)(NC(=O)c2cnn3c2N[C@@H](c2ccccc2)CC3(C)C)C(=O)N(C)C)cc1 (stereo partly drawn) [Example 33, (5R)-N-(1-(Dimethylamino)-2-(4-ethylphenyl)-1-oxobutan-2-yl)-7,7-dimethyl-5-phenyl-4,5,6,7-tetrahydropyrazolo[1,5-a]pyrimidine-3-carboxamide]
